Experimental findings from BindingDB's records for patent US20260049089 (Shanghai Apeiron Therapeutics Company, 2026) are described below.

SMILES strings stand for the structures.

Assay [1] concerns the target T1, GTPase KRas (G12D) (Homo sapiens, UniProt P01116, G12D). Description: KRAS-GDP Protein Assay. As to the method: 6> Add 5 μL of KRAS solution prepared with Buffer 1 to each well of the high-signal control group and compound test wells. Add 5 μL of Buffer 1 to each well of the low-signal control group. The final concentration of KRAS in the reaction is 5 nM (initially 40 nM, optimized to 5 nM). Incubate at room temperature for 1 hour.7> Add 5 μL of a solution containing SOS1 and GTP prepared with Buffer 2 to each well. Final concentrations in the reaction: 50 nM for SOS1 (initially 250 nM) and 125 μM for GTP (initially 625 μM). Incubate at room temperature for 1 hour.8> Add 5 μL of a solution containing cRAF and AlphaLISA Nickel Acceptor beads prepared with Buffer 2 to each well. Final concentrations in the reaction: 50 nM for cRAF and 20 μg/mL for AlphaLISA Nickel Acceptor beads. Incubate at room temperature for 1 hour.9> Add 5 μL of an AlphaScreen GSH Donor beads solution prepared with Buffer 2 to each well. Final concentration in the reaction: 20 μg/mL. Incubate at room temperature for 1 hour.10> Measure the signal values using an EnVision plate reader. Excitation wavelength: 680 nm, Emission wavelength: 615 nm.

In assay [2] the target is T1, GTPase KRas (G12D). The assay can be described thus: KRAS-GTP Protein Assay. The protocol: 6> Mix the prepared protein solution with the SOS1-GTP solution (at the same concentration as used for the GDP protein assay) in a 1:1 volume ratio. Pre-incubate the mixture at room temperature for 1 hour.7> Add 10 μL of the mixture from Step I to each well of the high-signal control group and compound test wells. For the low-signal control group, add 5 μL of Buffer 1 and 5 μL of the SOS1-GTP mixture to each well. Incubate at room temperature for 1 hour.8> Add 5 μL of a solution containing cRAF and AlphaLISA Nickel Acceptor beads prepared with Buffer 2 to each well. Final concentrations in the reaction: 50 nM for cRAF and 20 μg/mL for AlphaLISA Nickel Acceptor beads. Incubate at room temperature for 1 hour.9> Add 5 μL of an AlphaScreen GSH Donor beads solution prepared with Buffer 2 to each well. Final concentration in the reaction: 20 μg/mL. Incubate at room temperature for 1 hour.10> Measure the signal values using an EnVision plate reader. Excitation wavelength: 680 nm, Emission wavelength: 615 nm.

Assay [3] has as its target T1, GTPase KRas (G12D). The assay can be described thus: KRAS-GCP Protein Assay. As to the method: 6> Add 5 μL of KRAS solution prepared with Buffer 1 to each well of the high-signal control group and compound test wells; […]. The final concentration of KRAS in the reaction is 5 nM. Incubate at room temperature for 1 hour.7> Add 5 μL of Buffer 2 to each well. Incubate at room temperature for 1 hour.8> Add 5 μL of a solution containing cRAF and AlphaLISA Nickel Acceptor beads prepared with Buffer 2 to each well. Final concentrations in the reaction: 50 nM for cRAF and 20 μg/mL for AlphaLISA Nickel Acceptor beads. Incubate at room temperature for 1 hour.9> Add 5 μL of an AlphaScreen GSH Donor beads solution prepared with Buffer 2 to each well. Final concentration in the reaction: 20 μg/mL. Incubate at room temperature for 1 hour.10> Measure the signal values using an EnVision plate reader.

T1 sequence (P01116 whole entry G12D): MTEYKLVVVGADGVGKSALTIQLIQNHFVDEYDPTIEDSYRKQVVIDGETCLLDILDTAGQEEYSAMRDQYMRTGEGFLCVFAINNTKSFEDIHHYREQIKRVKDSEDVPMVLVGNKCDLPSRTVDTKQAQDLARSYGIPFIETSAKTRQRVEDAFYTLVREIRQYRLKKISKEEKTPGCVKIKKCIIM

Take `O=C1CCCCc2c(F)ccc3cc(O)cc(c23)-c2c(cc3c(N4CC5CCC(C4)N5)nc(OC[C@@]45CCCN4C[C@H](F)C5)nc3c2F)N1` [US20260049089, Example 4]: the values for the IC50 at GTPase KRas (G12D) [1], on GTPase KRas (G12D) [2] and on GTPase KRas (G12D) [3] were 2.2 nM, 3.5 nM and 94.4 nM, respectively.
In the case of `CN1CCCCc2c(F)ccc3cc(O)cc(c23)-c2c1cc1c(N3CC4CCC(C3)N4)nc(OC[C@@]34CCCN3C[C@H](F)C4)nc1c2F` [US20260049089, Example 3], the results for the IC50 against GTPase KRas (G12D) [1], on GTPase KRas (G12D) [2] and at GTPase KRas (G12D) [3] were 2.31 nM, 3.24 nM and more than 1000 nM, respectively.
On to `Oc1cc2c3c(c(F)ccc3c1)CCCCNc1cc3c(N4CC5CCC(C4)N5)nc(OC[C@@]45CCCN4C[C@H](F)C5)nc3c(F)c1-2` [US20260049089, Example 2], for which the IC50 is 2.87 nM against GTPase KRas (G12D) [1], 3.23 nM against GTPase KRas (G12D) [2] and more than 1000 nM at GTPase KRas (G12D) [3].
For the molecule `Oc1cc2c3c(c(F)ccc3c1)CCCCCNc1cc3c(N4CC5CCC(C4)N5)nc(OC[C@@]45CCCN4C[C@H](F)C5)nc3c(F)c1-2` [US20260049089, Example 5], the IC50 at GTPase KRas (G12D) [1] stood at 2.06 nM; on GTPase KRas (G12D) [2], 2.63 nM; at GTPase KRas (G12D) [3] it was 232 nM.
